This note sets out measurements from paper PMC6017545, “Design, Synthesis, and Biological Evaluation of Novel 1,3,4-Thiadiazole Derivatives as Potential Antitumor Agents against Chronic Myelogenous Leukemia: Striking Effect of Nitrothiazole Moiety” (Molecules : A Journal of Synthetic Chemistry and Natural …, 2017).

Data set [1] has as its system K562 chronic myelogenous leukemia cell line. The data set can be described thus: MTT cytotoxicity assay, K562 cells. It counts as cell-based, human. The note with it: for IC50: Homo sapiens, K562, 48 h of incubation, mean ± SD, three independent experiments.
Procedure: (§1) HeLa human cervical carcinoma cells were incubated in Dulbecco’s modified Eagle’s medium (DMEM) (Wako Pure Chemical Industries, Osaka, Japan) supplemented with 10% fetal bovine serum (FBS) (Equitech-Bio, Kerrville, TX, USA). […] Growing cells were plated at 2 × 10^4 cells/mL into 24-well microtiter tissue culture plates (Iwaki brand Asahi Glass Co., Chiba, Japan) and incubated for 48 h before the addition of the drugs (the optimal cell number for cytotoxicity assays was determined in preliminary experiments). […] The concentration of DMSO in the final culture medium was 1%.
(§2) The level of cellular reduction of 3-(4,5-dimethylthiazol-2-yl)-2,5-diphenyltetrazolium bromide (MTT) (Dojindo Molecular Technologies, Kumamoto, Japan) was quantified as previously described in the literature with small modifications [46]. The tested compounds were incubated with cells in various concentrations for 48 h. […] The solution was removed, and the formazan crystals were solubilized by an addition of 100 μL DMSO. The absorbance of the converted dye in the living cells was measured at a wavelength of 550 nm using a microplate spectrophotometer Infinitive M1000 (Tecan, Groding, Austria). Cell viability was calculated as a percentage of the viable control cells.
For another data set, the system named is MT-2 cell line. The data set can be described thus: MTT cytotoxicity assay, MT-2 cells. It counts as cell-based. The note with it: Homo sapiens, MT2, 48 h of incubation, mean ± SD, three independent experiments. For orientation: Formazan colour is commonly taken as a measure of viable cells.
In a further data set the test system is Jurkat cell line. As to the kind of experiment: MTT cytotoxicity assay, Jurkat cells. The note with it: Homo sapiens, 48 h of incubation, mean ± SD, three independent experiments. It counts as cell-based.
The test system of data set [2] is HeLa human cervical carcinoma cell line. The data set can be described thus: MTT cytotoxicity assay, HeLa cells. The note with it: for activity against the HeLa cell line (in words): 48 h; for IC50: Homo sapiens, HeLa, 48 h of incubation, mean ± SD, three independent experiments. The data set is classed as cell-based.
Procedure: as §1, §2
The subject of data set [3] is peripheral blood mononuclear cells (PBMC). As to the kind of experiment: MTT cytotoxicity assay, PBMC. The data set is classed as cell-based.
Procedure: as §1, §2
The next data set has as its system HeLa cells. The data set can be described thus: Apoptotic/necrotic/healthy cells detection assay (annexin V/ethidium homodimer III staining). The note with it: IC50 concentration; for apoptotic activity: 3 h, approximately 100 stained cells counted; for apoptotic and necrotic effects: 24 h and 48 h, data not shown. It counts as cell-based, human. How it is done: Then, detection of apoptotic/necrotic/healthy cells was performed according to the manufacturer’s instructions (PromoKine, Heidelberg, Germany). After the cells were washed twice with 1× binding buffer, a staining solution containing 50 μL of 1 × binding buffer, 2 μL of FITC-Annexin V solution, 2 μL of ethidium homodimer III solution, and 2 μL of Hoechst 33,342 solution was added and the cells were incubated for 15 min at room temperature (RT), protected from light. The cells were washed with 1 × binding buffer, analyzed by the all-in-one fluorescence microscope Biorevo Fluorescence BZ-9000 (Keyence, Osaka, Japan), and counted as described previously in [47].

In a further data set the target is T1, ABL1 (Homo sapiens, UniProt P00519).
T1 construct: purchased Promega Corporation
T1 sequence (P00519 whole entry): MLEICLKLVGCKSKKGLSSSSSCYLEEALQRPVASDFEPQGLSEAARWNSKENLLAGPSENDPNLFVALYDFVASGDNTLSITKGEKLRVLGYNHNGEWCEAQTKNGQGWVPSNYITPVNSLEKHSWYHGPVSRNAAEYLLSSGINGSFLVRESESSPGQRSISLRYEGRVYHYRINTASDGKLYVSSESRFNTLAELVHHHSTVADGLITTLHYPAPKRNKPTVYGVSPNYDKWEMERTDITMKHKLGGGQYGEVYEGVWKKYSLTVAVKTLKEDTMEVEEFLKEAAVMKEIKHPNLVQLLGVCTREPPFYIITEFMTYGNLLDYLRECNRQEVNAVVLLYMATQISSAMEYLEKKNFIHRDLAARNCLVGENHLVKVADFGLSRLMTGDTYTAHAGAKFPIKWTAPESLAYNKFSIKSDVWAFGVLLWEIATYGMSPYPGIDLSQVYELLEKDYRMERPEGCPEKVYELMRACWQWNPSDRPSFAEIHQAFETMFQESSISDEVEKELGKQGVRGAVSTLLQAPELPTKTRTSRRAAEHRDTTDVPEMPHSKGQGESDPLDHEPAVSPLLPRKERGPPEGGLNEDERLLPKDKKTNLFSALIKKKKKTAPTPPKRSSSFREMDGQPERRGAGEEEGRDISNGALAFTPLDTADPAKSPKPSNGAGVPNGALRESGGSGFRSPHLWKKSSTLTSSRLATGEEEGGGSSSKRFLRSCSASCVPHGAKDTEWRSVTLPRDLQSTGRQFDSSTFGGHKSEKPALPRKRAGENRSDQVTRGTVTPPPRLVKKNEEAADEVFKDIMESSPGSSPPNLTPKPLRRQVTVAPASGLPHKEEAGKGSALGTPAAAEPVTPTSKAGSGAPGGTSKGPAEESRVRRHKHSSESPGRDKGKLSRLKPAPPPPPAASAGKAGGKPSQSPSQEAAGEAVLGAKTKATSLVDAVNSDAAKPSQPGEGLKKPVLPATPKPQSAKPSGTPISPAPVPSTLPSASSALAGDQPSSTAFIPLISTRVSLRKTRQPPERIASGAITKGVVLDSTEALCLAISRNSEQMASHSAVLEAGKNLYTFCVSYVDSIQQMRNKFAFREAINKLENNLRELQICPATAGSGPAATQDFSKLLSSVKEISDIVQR
The data set can be described thus: Kinase inhibition assay (TK-2 profiling, ADP-Glo), ABL1. The data set is classed as biochemical. The note with it: 1 h at room temperature.

Another data set addresses T2, LCK (Homo sapiens, UniProt P06239).
T2 construct: purchased Promega Corporation
As to the kind of experiment: Kinase inhibition assay (TK-2 profiling, ADP-Glo), LCK. The data set is classed as biochemical. (ADP-Glo first removes unused ATP, then detects ADP through luciferase.)

A further data set concerns the target T3, SRC (Homo sapiens, UniProt P12931).
T3 construct: purchased Promega Corporation
As to the kind of experiment: Kinase inhibition assay (TK-2 profiling, ADP-Glo), SRC. It counts as biochemical.

The target of the next data set is BRK (Homo sapiens, UniProt Q13882). As to the kind of experiment: Kinase inhibition assay (TK-2 profiling, ADP-Glo), BRK.
Chain of BRK (Q13882 whole entry): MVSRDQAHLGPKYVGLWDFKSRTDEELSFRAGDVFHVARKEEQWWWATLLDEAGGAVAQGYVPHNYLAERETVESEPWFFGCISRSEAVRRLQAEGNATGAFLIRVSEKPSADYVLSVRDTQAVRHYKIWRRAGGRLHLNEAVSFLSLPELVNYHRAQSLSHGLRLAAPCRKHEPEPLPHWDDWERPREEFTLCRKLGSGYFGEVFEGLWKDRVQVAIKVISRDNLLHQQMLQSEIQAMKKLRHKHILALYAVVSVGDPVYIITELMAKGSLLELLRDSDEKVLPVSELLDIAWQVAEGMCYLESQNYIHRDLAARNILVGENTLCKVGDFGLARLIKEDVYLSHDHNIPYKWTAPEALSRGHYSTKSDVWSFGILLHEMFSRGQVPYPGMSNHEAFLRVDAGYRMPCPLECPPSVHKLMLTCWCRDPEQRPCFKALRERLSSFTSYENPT
The target in the next data set is BTK (Homo sapiens, UniProt Q06187). The data set can be described thus: Kinase inhibition assay (TK-2 profiling, ADP-Glo), BTK.
Chain of BTK (Q06187 whole entry): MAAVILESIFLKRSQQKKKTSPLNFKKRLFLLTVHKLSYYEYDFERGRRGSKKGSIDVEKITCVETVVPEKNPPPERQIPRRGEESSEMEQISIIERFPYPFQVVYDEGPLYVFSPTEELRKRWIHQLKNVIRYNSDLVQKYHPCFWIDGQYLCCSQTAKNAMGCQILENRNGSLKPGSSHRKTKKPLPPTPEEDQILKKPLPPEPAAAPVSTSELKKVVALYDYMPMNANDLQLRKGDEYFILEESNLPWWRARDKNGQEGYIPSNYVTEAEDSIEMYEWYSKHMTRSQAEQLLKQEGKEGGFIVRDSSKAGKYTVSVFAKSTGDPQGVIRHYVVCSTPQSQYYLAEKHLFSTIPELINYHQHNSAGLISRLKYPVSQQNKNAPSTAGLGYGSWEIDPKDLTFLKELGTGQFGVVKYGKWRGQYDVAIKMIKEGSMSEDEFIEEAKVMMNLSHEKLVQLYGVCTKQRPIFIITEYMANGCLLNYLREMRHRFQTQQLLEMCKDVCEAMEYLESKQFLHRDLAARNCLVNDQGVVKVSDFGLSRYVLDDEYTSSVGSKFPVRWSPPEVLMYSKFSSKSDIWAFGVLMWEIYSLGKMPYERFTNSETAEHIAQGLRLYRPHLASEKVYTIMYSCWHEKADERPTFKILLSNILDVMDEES
The next data set concerns the target CSK (Homo sapiens, UniProt P41240). As to the kind of experiment: Kinase inhibition assay (TK-2 profiling, ADP-Glo), CSK.
Another data set deals with FYN A (Homo sapiens, UniProt P06241). The data set can be described thus: Kinase inhibition assay (TK-2 profiling, ADP-Glo), FYN A.
Chain of FYN A (P06241 whole entry): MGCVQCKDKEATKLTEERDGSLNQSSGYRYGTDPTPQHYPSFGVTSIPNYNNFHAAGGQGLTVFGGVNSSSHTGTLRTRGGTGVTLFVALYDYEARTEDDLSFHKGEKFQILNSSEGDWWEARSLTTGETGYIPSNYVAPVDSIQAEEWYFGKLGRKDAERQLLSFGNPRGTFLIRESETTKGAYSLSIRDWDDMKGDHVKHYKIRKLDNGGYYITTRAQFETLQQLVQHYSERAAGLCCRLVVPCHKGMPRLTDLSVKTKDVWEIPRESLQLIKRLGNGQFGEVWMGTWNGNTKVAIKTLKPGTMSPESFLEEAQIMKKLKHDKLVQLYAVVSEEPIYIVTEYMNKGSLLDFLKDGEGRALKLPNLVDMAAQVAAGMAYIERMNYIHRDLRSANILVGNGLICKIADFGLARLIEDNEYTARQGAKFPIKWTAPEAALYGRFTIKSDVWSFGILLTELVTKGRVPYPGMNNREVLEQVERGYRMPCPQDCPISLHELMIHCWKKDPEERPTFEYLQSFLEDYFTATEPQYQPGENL
A further data set addresses LYN B (Homo sapiens, UniProt P07948). As to the kind of experiment: Kinase inhibition assay (TK-2 profiling, ADP-Glo), LYN B.
Where [4] appears, read: ADP-Glo, 1 h at room temperature.

The structures appear in SMILES notation.

Chain of CSK (P41240 whole entry): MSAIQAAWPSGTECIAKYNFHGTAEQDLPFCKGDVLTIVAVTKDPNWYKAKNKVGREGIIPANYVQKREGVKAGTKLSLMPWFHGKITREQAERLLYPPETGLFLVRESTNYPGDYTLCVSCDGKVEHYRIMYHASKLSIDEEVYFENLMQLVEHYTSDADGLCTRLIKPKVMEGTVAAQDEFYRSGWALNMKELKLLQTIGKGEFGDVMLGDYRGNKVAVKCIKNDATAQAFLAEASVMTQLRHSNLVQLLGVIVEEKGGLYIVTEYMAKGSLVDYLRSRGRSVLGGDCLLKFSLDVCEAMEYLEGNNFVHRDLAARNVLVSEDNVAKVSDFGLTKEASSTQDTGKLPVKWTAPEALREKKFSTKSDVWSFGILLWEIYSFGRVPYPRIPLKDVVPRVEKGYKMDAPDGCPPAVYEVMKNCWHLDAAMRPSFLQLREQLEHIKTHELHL
T3 sequence (P12931 whole entry): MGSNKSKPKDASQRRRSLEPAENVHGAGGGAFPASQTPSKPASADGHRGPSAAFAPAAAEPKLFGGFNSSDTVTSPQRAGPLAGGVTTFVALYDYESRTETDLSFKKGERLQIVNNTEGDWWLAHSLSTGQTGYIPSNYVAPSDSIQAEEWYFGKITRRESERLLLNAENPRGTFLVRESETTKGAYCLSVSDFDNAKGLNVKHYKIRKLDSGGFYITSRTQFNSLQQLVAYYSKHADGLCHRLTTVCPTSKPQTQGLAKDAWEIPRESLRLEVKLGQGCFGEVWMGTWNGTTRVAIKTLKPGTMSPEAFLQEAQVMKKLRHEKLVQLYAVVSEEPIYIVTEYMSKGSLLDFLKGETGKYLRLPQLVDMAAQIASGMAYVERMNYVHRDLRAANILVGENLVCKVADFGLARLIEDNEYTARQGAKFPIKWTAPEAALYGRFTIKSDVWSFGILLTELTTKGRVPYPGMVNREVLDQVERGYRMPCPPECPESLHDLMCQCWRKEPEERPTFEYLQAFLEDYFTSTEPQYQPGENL
T2 sequence (P06239 whole entry): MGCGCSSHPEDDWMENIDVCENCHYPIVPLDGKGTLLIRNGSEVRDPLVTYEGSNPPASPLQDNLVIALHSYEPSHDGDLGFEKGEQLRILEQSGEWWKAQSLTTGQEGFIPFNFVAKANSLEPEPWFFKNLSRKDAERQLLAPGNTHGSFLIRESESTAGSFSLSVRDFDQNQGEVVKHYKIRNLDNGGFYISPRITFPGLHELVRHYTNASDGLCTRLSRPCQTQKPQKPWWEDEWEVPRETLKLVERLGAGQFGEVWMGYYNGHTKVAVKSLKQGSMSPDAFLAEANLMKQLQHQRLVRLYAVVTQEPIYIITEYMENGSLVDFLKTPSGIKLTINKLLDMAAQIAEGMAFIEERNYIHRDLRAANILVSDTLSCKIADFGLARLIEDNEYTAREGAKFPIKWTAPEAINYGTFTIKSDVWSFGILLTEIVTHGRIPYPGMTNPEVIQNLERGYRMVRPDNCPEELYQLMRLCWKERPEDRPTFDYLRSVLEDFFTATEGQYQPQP
Chain of LYN B (P07948 1-491 isoform P07948-2): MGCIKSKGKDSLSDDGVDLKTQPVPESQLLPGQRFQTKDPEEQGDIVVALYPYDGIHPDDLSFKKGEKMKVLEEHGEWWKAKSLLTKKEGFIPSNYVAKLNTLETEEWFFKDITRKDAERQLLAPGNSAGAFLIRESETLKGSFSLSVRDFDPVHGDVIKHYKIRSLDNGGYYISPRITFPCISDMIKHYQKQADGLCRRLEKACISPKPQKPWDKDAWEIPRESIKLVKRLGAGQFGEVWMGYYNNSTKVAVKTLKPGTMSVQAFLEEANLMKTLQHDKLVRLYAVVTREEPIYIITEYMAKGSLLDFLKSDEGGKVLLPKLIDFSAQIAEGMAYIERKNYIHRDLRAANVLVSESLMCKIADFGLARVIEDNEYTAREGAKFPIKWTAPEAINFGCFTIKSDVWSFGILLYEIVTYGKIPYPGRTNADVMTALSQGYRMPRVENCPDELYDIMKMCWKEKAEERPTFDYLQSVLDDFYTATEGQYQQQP
Procedure for ABL1: (§3) Kinase selectivity profiling system (TK-2) assays were performed according to the manufacturer’s instructions (Promega Corporation, Madison, WI, USA). Multipoint dose-response experiments were performed using eight kinases, namely: ABL1, BRK, BTK, CSK, FYN A, LCK, LYN B, and SRC. […] After 1 h of incubation at room temperature, kinase activity was quantified using the ADP-Glo Kinase Assay (Promega Corporation). Kinase inhibition was quantified using an Infinitive M1000 luminescence microplate spectrophotometer (Tecan, Groding, Austria).
Procedure for BRK: as §3
Procedure for BTK: as §3
Procedure for CSK: as §3
Procedure for FYN A: as §3
Procedure for Jurkat cell line: as §1, §2
Procedure for LCK: as §3
Procedure for LYN B: as §3
Procedure for MT-2 cell line: as §1, §2
Procedure for SRC: as §3

Take `CCOc1ccc2nc(NC(=O)CSc3nnc(Nc4ccc(C(F)(F)F)cc4)s3)sc2c1` [Compound 9, N-(6-Ethoxybenzothiazol-2-yl)-2-((5-((4-(trifluoromethyl)phenyl)amino)-1,3,4-thiadiazol-2-yl)thio)acetamide]: the IC50 in data set [1] is greater than 300 µM; with MT-2 cell line, greater than 300 µM; with Jurkat cell line, 96.1 ± 7 µM; in data set [2] it was 69.4 ± 7 µM. In addition, the “activity against the HeLa cell line (in words)” value in data set [2] is “no significant activity”.
In the case of `O=C(CSc1nnc(Nc2ccc(C(F)(F)F)cc2)s1)Nc1nc2ccc(Cl)cc2s1` [Compound 6, N-(6-Chlorobenzothiazol-2-yl)-2-((5-((4-(trifluoromethyl)phenyl)amino)-1,3,4-thiadiazol-2-yl)thio)acetamide], the IC50 in data set [1] was greater than 300 µM; in the data set with MT-2 cell line, 38.3 ± 2 µM; in the data set on Jurkat cell line, 54.4 ± 8 µM; in [2] it was 28.7 ± 10 µM.
The molecule `O=C(CSc1nnc(Nc2ccc(C(F)(F)F)cc2)s1)Nc1nc2ccc([N+](=O)[O-])cc2s1` [Compound 10, N-(6-Nitrobenzothiazol-2-yl)-2-((5-((4-(trifluoromethyl)phenyl)amino)-1,3,4-thiadiazol-2-yl)thio)acetamide] registered a melting point of 311.8 to 312.5 °C. Besides, the IC50 in data set [1] was greater than 300 µM. For the same molecule, in the data set with MT-2 cell line, the IC50 is greater than 300 µM. Further, in the data set with Jurkat cell line, the IC50 was greater than 300 µM. For the same molecule, in [2], the “activity against the HeLa cell line (in words)” value was “no significant activity” and half-maximal inhibition (IC50) required 75.3 ± 9 µM.
Take `COc1ccc2nc(NC(=O)CSc3nnc(Nc4ccc(C(F)(F)F)cc4)s3)sc2c1` [Compound 8, N-(6-Methoxybenzothiazol-2-yl)-2-((5-((4-(trifluoromethyl)phenyl)amino)-1,3,4-thiadiazol-2-yl)thio)acetamide]: the IC50 in data set [1] is greater than 300 µM; with MT-2 cell line it was greater than 300 µM; in the data set with Jurkat cell line, greater than 300 µM; in data set [2] it was 30.9 ± 4 µM.
The molecule `O=C(CSc1nnc(Nc2ccc(C(F)(F)F)cc2)s1)Nc1ncc([N+](=O)[O-])s1` [Compound 2, N-(5-Nitrothiazol-2-yl)-2-((5-((4-(trifluoromethyl)phenyl)amino)-1,3,4-thiadiazol-2-yl)thio)acetamide] registered a melting point of 275 to 276.5 °C. This molecule came in with an IC50 in [1] of 33 ± 4 µM. Further, in the data set with MT-2 cell line, the concentration for half-maximal inhibition (IC50) was determined as 167 ± 8 µM. This molecule also displayed an IC50 in the data set with Jurkat cell line of 17.9 ± 4 µM. In data set [2], this molecule returned an IC50 of 12.4 ± 2 µM. This molecule also yielded an IC50 in data set [3] (PBMC, MTT, 48 h of incubation, mean ± SD, three independent experiments) of 141 ± 16 µM. Besides, in data set [3] (ratio of PBMC IC50 values, 48 h), the “times lower cytotoxicity on PBMC than imatinib” value was ~ 5 times. In addition, in the data set on HeLa cells, the apoptotic activity is reported as 96%; the “apoptotic and necrotic effects” value is “induced late apoptosis or necrosis”. The same molecule came in with an IC50 on ABL1 of 7.4 µM. At LCK (setting [4]), it took 40.1 µM to reach half-maximal inhibition (IC50). At LCK (IC50 in the micromolar range), the “inhibition of LCK (in words)” value is listed as “significantly inhibited”. For the same molecule, on SRC, the “inhibition of SRC (in words)” value is “inactive”. The molecule further had an IC50 against SRC (setting [4]) greater than 100 µM. At BRK, the IC50 is greater than 100 µM and the “inhibition of BRK (in words)” value is “inactive”. The molecule also gave an IC50 at BTK of 30.2 µM. At BTK (IC50 in the micromolar range), the “inhibition of BTK (in words)” value is “significantly inhibited”. Moreover, on CSK, half-maximal inhibition (IC50) required 18.4 µM. For the same molecule, the “inhibition of CSK (in words)” value against CSK (IC50 in the micromolar range) is given as “significantly inhibited”. This molecule also displayed an IC50 against FYN A of 70.8 µM. In addition, the “inhibition of FYN A (in words)” value on FYN A (IC50 in the micromolar range) is listed as “significantly inhibited”. For the same molecule, on LYN B, the IC50 was greater than 100 µM and the “inhibition of LYN B (in words)” value was “inactive”.
In the case of `Cc1ccc(NC(=O)c2ccc(CN3CCN(C)CC3)cc2)cc1Nc1nccc(-c2cccnc2)n1` [Imatinib, imatinib, reference compound], in the data set with HeLa cells, the apoptotic activity is reported as 78%; the “apoptotic and necrotic effects” value is listed as “induced late apoptosis or necrosis”.
Take `O=C(CSc1nnc(Nc2ccc(C(F)(F)F)cc2)s1)Nc1nccs1` [Compound 1, N-(Thiazol-2-yl)-2-((5-((4-(trifluoromethyl)phenyl)amino)-1,3,4-thiadiazol-2-yl)thio)acetamide]: the melting point fell in the range of 271.4 to 272.5 °C. For the same molecule, the “activity against the K562 cell line (in words)” value in data set [1] (48 h) is “inactive”. In data set [1], this molecule returned an IC50 greater than 300 µM. Further, the IC50 with MT-2 cell line was greater than 300 µM. Moreover, the IC50 in the data set on Jurkat cell line is greater than 300 µM. For the same molecule, in data set [2], the “activity against the HeLa cell line (in words)” value is “no significant activity” and the midpoint of inhibition, the IC50, lay at 135 ± 12 µM.
For the molecule `Cc1ccc2nc(NC(=O)CSc3nnc(Nc4ccc(C(F)(F)F)cc4)s3)sc2c1` [Compound 7, N-(6-Methylbenzothiazol-2-yl)-2-((5-((4-(trifluoromethyl)phenyl)amino)-1,3,4-thiadiazol-2-yl)thio)acetamide], the IC50 is greater than 300 µM in [1], 198 ± 11 µM in the data set with MT-2 cell line, greater than 300 µM in the data set on Jurkat cell line and 30.2 ± 4 µM in [2].
For the molecule `CCOC(=O)Cc1csc(NC(=O)CSc2nnc(Nc3ccc(C(F)(F)F)cc3)s2)n1` [Compound 3, Ethyl 2-(2-(2-((5-((4-(trifluoromethyl)phenyl)amino)-1,3,4-thiadiazol-2-yl)thio)acetamido)thiazol-4-yl)acetate], the half-maximal inhibitory concentration (IC50) is greater than 300 µM in data set [1], greater than 300 µM in the data set with MT-2 cell line, 129 ± 6 µM in the data set on Jurkat cell line and 14.1 ± 5 µM in data set [2].
`O=C(CSc1nnc(Nc2ccc(C(F)(F)F)cc2)s1)Nc1nc2ccc(F)cc2s1` [Compound 5, N-(6-Fluorobenzothiazol-2-yl)-2-((5-((4-(trifluoromethyl)phenyl)amino)-1,3,4-thiadiazol-2-yl)thio)acetamide]: the melting point lay within 309.9 to 310.8 °C. In data set [1], the IC50 was greater than 300 µM. Besides, in the data set with MT-2 cell line, the IC50 is 78.5 ± 12 µM. The molecule also gave an IC50 with Jurkat cell line of 97.9 ± 10 µM. This molecule also showed an IC50 in data set [2] of 17.3 ± 8 µM.
With `O=C(CSc1nnc(Nc2ccc(C(F)(F)F)cc2)s1)Nc1nc2ccccc2s1` [Compound 4, N-(Benzothiazol-2-yl)-2-((5-((4-(trifluoromethyl)phenyl)amino)-1,3,4-thiadiazol-2-yl)thio)acetamide], the IC50 is greater than 300 µM in data set [1], 267 ± 14 µM with MT-2 cell line, greater than 300 µM with Jurkat cell line and 32.9 ± 2 µM in data set [2].

As a reminder, the IC50 is the concentration needed to halve the response being measured. A lower IC50 goes with greater potency in that assay. The term melting point denotes the temperature of the solid-liquid transition.
